Data reported in US20240209027A1, “PEPTIDE AND PEPTIDE-CONTAINING COMPOSITION” (PeptiAID Inc.,, priority 2021, published 2024).
Where two headings read alike, the source gives them in different places. Starred links: 1 amine or outer side, 2 acyl side, 3 side chain; linkers in the order of their positions; H or OH if unused. Positions of bridges follow the written chain, without caps; N, C: chain ends. Non-standard residues stand in square brackets, D forms with d. Residues, ends and D or L forms follow the SMILES beside them. *: point of attachment. Ala(piperidin-4-yl) = O=C([C@H](CC1CCN([*:3])CC1)N[*:1])[*:2]; Phe(4-COOH) = N[C@@H](Cc1ccc(C(=O)O)cc1)C(=O)O; Phe(4-F) = N[C@@H](Cc1ccc(F)cc1)C(=O)O; C12 diacid = O=C(O)CCCCCCCCCCC(=O)*; NMeE = CN[C@@H](CCC(=O)O)C(=O)O; Cha = N[C@@H](CC1CCCCC1)C(=O)O; Cit = NC(=O)NCCC[C@H](N)C(=O)O; NMeNle = CCCC[C@H](NC)C(=O)O; PEG2 = NCCOCCOCCC(=O)O; Aib = CC(C)(N)C(=O)O

Experiments:
[1] = test system: SARS-CoV2 (USA WA1/2020 strain); settings: 72 h
in vitro = settings: African green monkey
[2] = biological target: SARS-CoV-2-derived S protein, Wuhan strain (Severe acute respiratory syndrome coronavirus 2, UniProt P0DTC2); type: cell-based
[3] = biological target: spike protein of SARS-CoV-2 (GENE Accession No. YP 009724390) (Severe acute respiratory syndrome coronavirus 2, UniProt P0DTC2); assay: Screening for target protein-binding peptides
Text: First, the spike protein of SARS-CoV-2 (GENE Accession No. YP 009724390) was set to a target and the screening method described in International Publication WO2014/119600, International Publication WO2012/033154, or International Publication WO 2007/066627 was used to discover the target protein-binding peptides.

[4] = test system: SARS-CoV-2 (JPN/TY/WK-521 strain); type: cell-based; design: key: the case where the peptide was found to have anti-SARS-CoV-2 activity when added at 50 nM was designated as “2”; the case where no activity was found upon the addition at 50 nM but the activity was found at 1 μM was designated as “1”; settings: peptide added at 50 nM or 1 μM
[5] = test system: SARS-CoV-2 mouse subculture strain QHmusX; type: in vivo, BALB/c mice; settings: for lung histology (HE staining): day 10; for weight loss / respiratory symptoms: mouse, in vivo
[6] = test system: SARS-CoV-2 (USA WA1/2020 strain); type: in vivo, Golden Syrian hamsters; settings: for Chronic active inflammation (anterior lobe): Mild / Chronic active inflammation (anterior lobe): Moderate / Chronic active inflammation (anterior lobe): Severe / Chronic active inflammation (posterior lobe): Mild / Chronic active inflammation (posterior lobe): Minor / Chronic active inflammation (posterior lobe): Moderate / Chronic active inflammation (posterior lobe): Severe: cases; for Gross findings of the lung: Mottled fading (number of animals) / Gross findings of the lung: No change (number of animals): 6 animals

CCCC[C@H]1C(=O)NC(C)(C)C(=O)N[C@@H](CC2CCCCC2)C(=O)N[C@@H](Cc2ccc(F)cc2)C(=O)N[C@H](CC(=O)O)C(=O)N[C@@H](Cc2ccc(O)cc2)C(=O)N[C@@H](Cc2ccc(O)cc2)C(=O)N[C@@H](CCCNC(N)=O)C(=O)N[C@H](CCCCN)C(=O)N[C@@H](CC2CCCCC2)C(=O)N[C@H](C(=O)N[C@H](CCC(=O)O)C(=O)NCCOCCOCCC(=O)N[C@H](CCCCNC(=O)CCCCCCCCCCC(=O)O)C(N)=O)CSCC(=O)N(C)[C@@H](CCC(=O)O)C(=O)N1C [Peptide 5555_p227] ({CH2CO}-[NMeE][NMeNle][Aib][Cha][Phe(4-F)][dD]YY[Cit][dK][Cha]C[dE][PEG2][dK](C12 diacid)-NH2; thioether N-12)
IC50 (SARS-CoV-2 Delta strain): 8 nM
IC50 (SARS-CoV-2 Wuhan strain): 11.5 nM

C[C@H]1C(=O)N(C)[C@@H](Cc2ccccc2)C(=O)N[C@@H](CO)C(=O)N[C@@H](CC2CCCCC2)C(=O)N[C@@H](Cc2ccc(O)cc2)C(=O)N[C@@H](CO)C(=O)N[C@@H](Cc2ccc(O)cc2)C(=O)N[C@@H](Cc2ccc(O)cc2)C(=O)N[C@@H](CCCNC(=N)N)C(=O)N[C@@H](CCCNC(=N)N)C(=O)N[C@@H](CC2CCCCC2)C(=O)N[C@H](C(=O)N[C@H](CCC(=O)O)C(N)=O)CSCC(=O)N1C [Peptide 5555_p000, MeA-MeF-S-Cha-Y-S-Y-Y-R-R-Cha-C]
IC50 [1]: 23.9 nM
CC50 at 72 h (in vitro): > 1000 nM
Imax: % (at 500 nM) [2]: 100%
binding to the spike protein of SARS-CoV-2 [3]: binds to the spike protein of SARS-CoV-2
Anti-SARS-CoV-2 activity [4]: 2

CCCC[C@H]1C(=O)NC(C)(C)C(=O)N[C@@H](CC2CCCCC2)C(=O)N[C@@H](Cc2ccc(F)cc2)C(=O)N[C@H](CC(=O)O)C(=O)N[C@@H](Cc2ccc(O)cc2)C(=O)N[C@@H](Cc2ccc(O)cc2)C(=O)N[C@@H](CCCNC(N)=O)C(=O)N[C@H](CCCCN)C(=O)N[C@@H](CC2CCCCC2)C(=O)N[C@H](C(=O)N[C@H](CCC(=O)O)C(=O)O)CSCC(=O)N(C)[C@@H](CCC(=O)O)C(=O)N1C [Peptide 5555_p028] ({CH2CO}-[NMeE][NMeNle][Aib][Cha][Phe(4-F)][dD]YY[Cit][dK][Cha]C[dE]-OH; thioether N-12)
lung histology (HE staining) ([5]; 30 mg administration group): mild aggregation of cells (*) was observed around blood vessels in almost all lung lobes
weight loss / respiratory symptoms [5]: the rate of weight loss improved significantly (P<0.05) after the fourth day
IC50 [1]: 3.5 nM
Chronic active inflammation (anterior lobe): Mild ([6]; 1 mg/kg (n = 6)): 5
Chronic active inflammation (anterior lobe): Moderate ([6]; 1 mg/kg (n = 6)): 1
Chronic active inflammation (anterior lobe): Severe ([6]; 1 mg/kg (n = 6)): 0
Chronic active inflammation (posterior lobe): Mild ([6]; 1 mg/kg (n = 6)): 5
Chronic active inflammation (posterior lobe): Minor ([6]; 1 mg/kg (n = 6)): 0
Chronic active inflammation (posterior lobe): Moderate ([6]; 1 mg/kg (n = 6)): 1
Chronic active inflammation (posterior lobe): Severe ([6]; 1 mg/kg (n = 6)): 0
body weight, Mean ([6]; 1 mg/kg i.p., Day 0): 126.75
body weight, Mean ([6]; 1 mg/kg i.p., Day 1): 124.03
body weight, Mean ([6]; 1 mg/kg i.p., Day 2): 122.3
body weight, Mean ([6]; 1 mg/kg i.p., Day 3): 120.17
body weight, Mean ([6]; 1 mg/kg i.p., Day 4): 120.33
body weight, Mean ([6]; 1 mg/kg i.p., Day 5): 120.75
body weight, Mean ([6]; 1 mg/kg i.p., Day −6): 118.63
Gross findings of the lung: Mottled fading (number of animals) ([6]; 1 mg/kg): 6 number of animals
Gross findings of the lung: No change (number of animals) ([6]; 1 mg/kg): 0 number of animals
SARS-CoV-2 genome copy number in lung (RT-qPCR), Log10 of Geometric mean (copy number/gram) ([6]; 1 mg/kg, Day 5): 8.15 copy number/gram
SARS-CoV-2 genome copy number in lung vs solvent control ([6]; 5 mg/kg): statistically significant decrease
Chronic active inflammation (anterior lobe): Mild ([6]; 5 mg/kg (n = 6)): 1
Chronic active inflammation (anterior lobe): Moderate ([6]; 5 mg/kg (n = 6)): 5
Chronic active inflammation (anterior lobe): Severe ([6]; 5 mg/kg (n = 6)): 0
Chronic active inflammation (posterior lobe): Mild ([6]; 5 mg/kg (n = 6)): 3
Chronic active inflammation (posterior lobe): Minor ([6]; 5 mg/kg (n = 6)): 2
Chronic active inflammation (posterior lobe): Moderate ([6]; 5 mg/kg (n = 6)): 1
Chronic active inflammation (posterior lobe): Severe ([6]; 5 mg/kg (n = 6)): 0
Chronic active inflammation (posterior lobe): Minor ([6]; 5 mg/kg (n = 6), listed as 5555_028): Minor lung inflammation was observed in the posterior lobe in two cases
body weight, Mean ([6]; 5 mg/kg i.p., Day 0): 126.52
body weight, Mean ([6]; 5 mg/kg i.p., Day 1): 122.87
body weight, Mean ([6]; 5 mg/kg i.p., Day 2): 120.87
body weight, Mean ([6]; 5 mg/kg i.p., Day 3): 120.42
body weight, Mean ([6]; 5 mg/kg i.p., Day 4): 118.52
body weight, Mean ([6]; 5 mg/kg i.p., Day 5): 119.68
body weight, Mean ([6]; 5 mg/kg i.p., Day −6): 118.67
Gross findings of the lung: Mottled fading (number of animals) ([6]; 5 mg/kg): 6 number of animals
Gross findings of the lung: No change (number of animals) ([6]; 5 mg/kg): 0 number of animals
SARS-CoV-2 genome copy number in lung (RT-qPCR), Log10 of Geometric mean (copy number/gram) ([6]; 5 mg/kg, Day 5): 7.72 copy number/gram
SARS-CoV-2 genome copy number in lung vs solvent control ([6]; 25 mg/kg): decreasing trend
Chronic active inflammation (anterior lobe): Mild ([6]; 25 mg/kg (n = 6)): 2
Chronic active inflammation (anterior lobe): Moderate ([6]; 25 mg/kg (n = 6)): 4
Chronic active inflammation (anterior lobe): Severe ([6]; 25 mg/kg (n = 6)): 0
Chronic active inflammation (posterior lobe): Mild ([6]; 25 mg/kg (n = 6)): 6
Chronic active inflammation (posterior lobe): Minor ([6]; 25 mg/kg (n = 6)): 0
Chronic active inflammation (posterior lobe): Moderate ([6]; 25 mg/kg (n = 6)): 0
Chronic active inflammation (posterior lobe): Severe ([6]; 25 mg/kg (n = 6)): 0
body weight, Mean ([6]; 25 mg/kg i.p., Day 0): 129.63
body weight, Mean ([6]; 25 mg/kg i.p., Day 1): 126.85
body weight, Mean ([6]; 25 mg/kg i.p., Day 2): 126.68
body weight, Mean ([6]; 25 mg/kg i.p., Day 3): 126.22
body weight, Mean ([6]; 25 mg/kg i.p., Day 4): 124.45
body weight, Mean ([6]; 25 mg/kg i.p., Day 5): 121.62
body weight, Mean ([6]; 25 mg/kg i.p., Day −6): 118.95
Gross findings of the lung: Mottled fading (number of animals) ([6]; 25 mg/kg): 4 number of animals
Gross findings of the lung: No change (number of animals) ([6]; 25 mg/kg): 2 number of animals
Gross findings of the lung: No change (number of animals) ([6]; 25 mg/kg, listed as 5555_028): no lung fading was observed in two cases
SARS-CoV-2 genome copy number in lung (RT-qPCR), Log10 of Geometric mean (copy number/gram) ([6]; 25 mg/kg, Day 5): 8.76 copy number/gram
severity of lung inflammation vs solvent control ([6]; 1, 5, or 25 mg/kg i.p.): The severity of lung inflammation was reduced
weight loss vs solvent control ([6]; hamster, in vivo): the weight loss was suppressed to the same degree at any of the doses
Imax: % (at 500 nM) [2]: 91%
Anti-SARS-CoV-2 activity [4]: 2

CCCC[C@H]1C(=O)NC(C)(C)C(=O)N[C@@H](CC2CCCCC2)C(=O)N[C@@H](Cc2ccc(F)cc2)C(=O)NC(C)(C)C(=O)N[C@@H](Cc2ccc(O)cc2)C(=O)N[C@@H](Cc2ccc(O)cc2)C(=O)N[C@@H](Cc2ccc(C(=O)O)cc2)C(=O)N[C@@H](CC2CCNCC2)C(=O)N[C@@H](CC2CCCCC2)C(=O)N[C@H](C(=O)N[C@H](CCC(=O)O)C(N)=O)CSCC(=O)N(C)[C@@H](CCC(=O)O)C(=O)N1C [Peptide 5555_p020] ({CH2CO}-[NMeE][NMeNle][Aib][Cha][Phe(4-F)][Aib]YY[Phe(4-COOH)][Ala(piperidin-4-yl)][Cha]C[dE]-NH2; thioether N-12)
lung histology (HE staining) ([5]; 10 mg administration group): mild aggregation of lymphocytes (*) was observed around blood vessels near the bronchioles in some lung lobes
weight loss / respiratory symptoms [5]: no findings suggestive of weight loss or respiratory symptoms were observed
IC50 [1]: 2.3 nM
CC50 at 72 h (in vitro): > 1000 nM
Imax: % (at 500 nM) [2]: 99%
Anti-SARS-CoV-2 activity [4]: 2
